Drawing on patent publication US10981932B2, “Macrocyclic indole derivatives” (Bayer Aktiengesellschaft, priority 2016, dated 2021), this text covers IC50 and EC50 for 5 compounds.

One series has as its target MCL-1 (Homo sapiens, UniProt Q07820). The experiment in a line: Protein-protein interaction assay MCL-1/Noxa BH3 peptide (MCL-1 assay), TR-FRET. It is filed as binding. Conditions: MBP-MCL-1 / Noxa BH3-derived peptide, median. In a few lines:
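Steady-state competition, MCL-1/Noxa BH3, TR-FRET readout; 1 nM MBP-MCL-1, 11-point dose series 0.1 nM–20 μM; overnight 4 °C equilibration; 4-parameter IC50.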
For orientation: Time-resolved FRET reads energy transfer from a long-lived donor to a nearby acceptor.

In series [1] the test system is SUDHL5. Briefly: Induction of caspase-3/7 activity (Caspase-Glo 3/7), SUDHL5. Type of series: cell-based. Conditions: caspase-3/7 induction, SUDHL5 cells, 3 h treatment, median. In short, it runs like this: (§1)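 A 3 h, 37 °C compound incubation precedes the Caspase-Glo 3/7 read. After subtracting medium-only signal, EC50s are fitted against the reference compound's maximal caspase induction.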

The test system of series [2] is SUDHL10. The experiment in a line: Induction of caspase-3/7 activity (Caspase-Glo 3/7), SUDHL10. Type of series: cell-based. Conditions: caspase-3/7 induction, SUDHL10 cells, 3 h treatment, median. In short, it runs like this:
as §1

The subject of series [3] is SUDHL10. Briefly: Anti-proliferative effect (CellTiter-Glo, 72 h), SUDHL10. Type of series: cell-based. Conditions: SUDHL10 cells, antiproliferation, 72 h incubation, median, read-out: Antiproli SUDHL10 [M] (median). In a few lines: (§2)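 Endpoint: CellTiter-Glo luminescence, 10 min after reagent addition. Treatment ran 72 h at 37 °C, humidified. Growth was referenced to a separately plated day 0 plate.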
In general terms: In ATP-based viability assays light output follows the ATP content of the culture.

The subject of the next series is OPM2. The experiment in a line: Anti-proliferative effect (CellTiter-Glo, 72 h), OPM2. Type of series: cell-based. Conditions: OPM2 cells, median, read-out: IC50 antiproliferation assay OPM2 [M] (median). In short, it runs like this:
as §2

Another series concerns A2780. The experiment in a line: Anti-proliferative effect (CellTiter-Glo, 72 h), A2780. It is filed as cell-based. Conditions: A2780 cells, median, read-out: IC50 antiproliferation assay A2780 [M] (median). In a few lines:
as §2

The subject of series [4] is SUDHL5. The experiment in a line: Induction of cytotoxicity (CellTiter-Glo, 5 h), SUDHL5. Conditions: read-out: Cytotox SUDHL5 [M] (median); SUDHL5 cells, cytotoxicity induction, CellTiter-Glo, 5 h incubation, median.
Series [5] has as its system SUDHL10. Briefly: Induction of cytotoxicity (CellTiter-Glo, 5 h), SUDHL10.
Procedure: Therefore, cytotoxicity assays were run in parallel in SUDHL5 and SUDHL10 cells.
The different cell lines were plated in culture medium (RPMI 1640 [GIBCO #22400-089]supplemented with 10% Fetal Bovine Serum) at a density of 3.300 cells in 30 μl/well in a sterile, solid black, flat bottom, polystyrene, TC-treated 384-well microplate (Corning #3571) using Multidrop Combi Reagent Dispenser. As a control, medium without cells was also added to the plate. Cells were incubated in a humidified incubator at 37° C. overnight. On the next day, the cells were treated with compounds (stock solution, 10 mM in DMSO) using the HP D300 Digital Dispenser in a concentration range of 3.3×10e-5 M (33 μM) to 5×10e-9 M (5 nM) in a single-dot curve with at least 16 dilutions and a DMSO concentration of 0.33%. Rim wells were excluded. The cells were incubated for 5 h hours in a humidified incubator at 37° C. After this incubation, 30 μl of CellTiter-Glo@ Luminescent Cell Viability reagent (Promega, G7573) was added to each well using the Multidrop Combi Reagent Dispenser, followed by 15 min incubation on a shaker at room temperature. Finally, luminescence was read at 0.1 ms, with a gain of 3000 using the PHERAstar FS microplate reader (BMG Labtech).
The Bella DRC Master Sheet was used to calculate IC50s, with fixed CI=0 and C0=1.
Setting [6] is: read-out: Cytotox SUDHL10 [M] (median), SUDHL10 cells, cytotoxicity induction, CellTiter-Glo, 5 h incubation, median.

“And” between values parts separate entries of the source, which are not always exact repeats. Equal entries are not always repeated. Structures can show the parent of a compound that is named as a salt. Where two headings read alike, the source gives them in different places. Where only a bound is given, the exact number is not on record here.

As a reminder, the EC50 is the concentration at which the effect is half-maximal. High values mean a need for much substance, low ones an effect from little substance.

Chain of MCL-1 (Q07820 whole entry): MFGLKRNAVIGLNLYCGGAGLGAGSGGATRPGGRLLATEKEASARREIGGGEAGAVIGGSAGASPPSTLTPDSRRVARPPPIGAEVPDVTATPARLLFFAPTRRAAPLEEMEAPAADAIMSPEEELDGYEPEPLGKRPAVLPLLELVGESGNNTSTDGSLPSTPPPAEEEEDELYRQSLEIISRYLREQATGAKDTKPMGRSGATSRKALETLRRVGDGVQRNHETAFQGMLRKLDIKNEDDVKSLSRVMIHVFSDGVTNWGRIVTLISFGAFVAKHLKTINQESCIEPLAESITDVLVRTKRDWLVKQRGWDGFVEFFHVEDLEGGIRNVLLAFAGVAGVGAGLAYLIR

Regarding `CC(C)OCc1nn(C)c2c1-c1cccc3c(CCCOc4cccc5ccccc45)c(C(=O)O)n(c13)CCCN(C)C2` (single isomer, unassigned) [Example 1-71, 7,9-dimethyl-1-[3-(naphthalen-1-yloxy)propyl]-1-[(propan-2-yloxy)methyl]-4,5,6,7,8,9-hexahydropyrazolo[3′,4′:7,8][1,5]diazecino[9,10,1-hi]indole-2-carboxylic Acid], the IC50 at MCL-1 is 0.0283 µM; with SUDHL10 [3] (Homo sapiens, SU-DHL10, 72 h), 2.13e-05 M; in the series on OPM2 (Homo sapiens, OPM-2, 72 h) it was 2.57e-05 M; with A2780 (Homo sapiens, A2780, 72 h) it was 2.55e-05 M; with SUDHL5 [4], 1.98e-05 M and > 3.3e-05 M; in the series on SUDHL10 [5] (Homo sapiens, SU-DHL10, 5 h, read-out: Cytotox SUDHL10 [M] (median), SUDHL10 cells, cytotoxicity induction, CellTiter-Glo, 5 h incubation, median), over 3.3e-05 M. Moreover, the EC50 was over 33 µM in the series on SUDHL5 [1] (Homo sapiens, SU-DHL-5, 3 h) and over 33 µM in the series with SUDHL10 [2] (Homo sapiens, SU-DHL10, 3 h).

On to `CN(C)S(=O)(=O)N1CCN(c2ccc(OCc3nn(C)c4c3-c3cccc5c(CCCOc6cccc7ccccc67)c(C(=O)O)n(c35)CCCCCC4)cc2)CC1` (single isomer, unassigned; enantiomer 2) [Example 1-41, 3-({4-[4-(dimethylsulfamoyl)piperazin-1-yl]phenoxy}methyl)-1-methyl-7-[3-(naphthalen-1-yloxy)propyl]-10,11,12,13,14,15-hexahydro-1H-pyrazolo[4′,3′:4,5]azacycloundecino[3,2,1-hi]indole-8-carboxylic acid-N-ethylethanamine Salt (Enantiomer 2)], for which the IC50 against MCL-1 was 0.00106 µM; in the series with SUDHL10 [3], 1.1e-06 M; with OPM2, 2.17e-06 M; in the series with A2780 it was 5.32e-06 M; with SUDHL5 [4], 7.69e-07 M; in the series on SUDHL10 [5] (setting [6]), 1.52e-06 M. Further, the values for the EC50 in the series on SUDHL5 [1] and in the series with SUDHL10 [2] were 0.723 µM and 0.897 µM, respectively.

For the compound `Cc1c2c(nn1CCN1CCOCC1)COCCCCn1c(C(=O)O)c(CCCOc3cccc4ccccc34)c3cccc-2c31` (single isomer, unassigned; enantiomer 2) [Example 055, 3-methyl-2-[2-(morpholin-4-yl)ethyl]-7-[3-(naphthalen-1-yloxy)propyl]-2,10,11,12,13,15-hexahydropyrazolo[4′,3′:9,10][1,6]oxazacycloundecino[8,7,6-hi]indole-8-carboxylic acid-N-ethylethanamine Salt (Enantiomer 2)], the IC50 on MCL-1 was 0.041 µM; with SUDHL10 [3], 1.17e-05 M; in the series with OPM2, over 3.3e-05 M; with A2780 it was over 3.3e-05 M; with SUDHL5 [4], over 3.3e-05 M; in the series with SUDHL10 [5] (setting [6]) it was over 3.3e-05 M. Further, the EC50 in the series with SUDHL5 [1] and in the series with SUDHL10 [2] was over 33 µM each time.

Take `COCCn1nc2c(c1CN1CCOCC1)-c1cccc3c(CCCOc4cccc5ccccc45)c(C(=O)O)n(c13)CCCN(C)C2` (single isomer, unassigned; enantiomer 2) [Example 058, 10-(2-methoxyethyl)-7-methyl-11-(morpholin-4-ylmethyl)-1-[3-(naphthalen-1-yloxy)propyl]-4,5,6,7,8,10-hexahydropyrazolo[3′,4′:7,8][1,5]diazecino[9,10,1-hi]indole-2-carboxylic Acid (Enantiomer 2)]: the IC50 is 0.116 µM on MCL-1; 2.05e-05 M in the series on SUDHL10 [3]; over 3.3e-05 M with OPM2; over 3.3e-05 M in the series with A2780; over 3.3e-05 M in the series on SUDHL5 [4]; over 3.3e-05 M with SUDHL10 [5] (setting [6]). The EC50 in the series with SUDHL5 [1] and in the series on SUDHL10 [2] was over 33 µM in each case.

With `CC(C)c1c2c(nn1C)CN(C)CCCn1c(C(=O)O)c(CCCOc3cccc4ccccc34)c3cccc-2c31` (single isomer, unassigned; enantiomer 2) [Example 115, 7,10-dimethyl-1-[3-(naphthalen-1-yloxy)propyl]-1-(propan-2-yl)-4,5,6,7,8,10-hexahydropyrazolo[3′,4′:7,8][1,5]diazecino[9,10,1-hi]indole-2-carboxylic Acid (Enantiomer 2)], the IC50 stood at 0.0829 µM at MCL-1; 4.86e-06 M with SUDHL10 [3]; 1.9e-05 M in the series on OPM2; 1.19e-05 M with A2780; 1.13e-05 M with SUDHL5 [4]; 1.49e-05 M with SUDHL10 [5] (setting [6]). Further, the EC50 is over 33 µM in the series with SUDHL5 [1] and 30.5 µM with SUDHL10 [2].
